Laboratory results: the NIST ThermoML archive (doi:10.1016/j.fluid.2015.12.021)
± gives the expanded uncertainty stated by the source.

Conditions: Crystal; visual observation

SMILES | Normal melting temperature
Cc1ccc(C(=O)O)cc1 [4-methylbenzoic acid] | 179.60 ± 0.5 °C
c1ccc2c(c1)ccc1ccccc12 [phenanthrene] | 99.24 ± 0.5 °C
c1ccc2ccccc2c1 [naphthalene] | 80.26 ± 0.5 °C

Continued, values first:

Normal melting temperature | SMILES
69.80 ± 0.5 °C | CCCCCCCCCCCCCCCCCC(=O)O [octadecanoic acid]
122.4 ± 0.5 °C | O=C(O)c1ccccc1 [benzoic acid]
153.20 ± 0.5 °C | O=C(O)CCCCC(=O)O [1,6-hexanedioic acid]
